In patent US10426790B2, “Treatment of allergic eye conditions with cyclodextrins” (Aldeyra Therapeutics, Inc., priority 2016, dated 2019):
“Also recorded” adds a separate entry of the source.

What was measured:
[1] = test system: subjects with allergic conjunctivitis to grass, tree or ragweed pollen (CAPT); assay: Phase IIa Conjunctival Allergen Provocation Test (CAPT) study, activity endpoints; format: in vivo, human; details: for efficacy in treating allergic conjunctivitis, result in words: clinical trial, topical ocular, four times daily about two weeks
Excerpt: The primary objective of the study is to evaluate the safety and activity of NS2, i.e., compound of structural formula (I), compared to vehicle in the treatment of moderate to severe allergic conjunctivitis in subjects allergic to grass, ragweed or tree allergens following approximately 2 weeks of treatment using the Conjunctival Allergen Provocation Test (CAPT) model.
This double-blind, vehicle-controlled, randomized, parallel group study allows for testing NS2 versus vehicle in subjects with grass, tree or ragweed-induced allergic conjunctivitis in CAPT model. This study consists of 7 or 8 visits to the clinic (a medical screening visit, a titrating CAPT visit, 1 or 2 confirmatory CAPT visits, a CAPT Onset of Action Visit, and three post-2 week dosing CAPT visits) over approximately 9 weeks.
At Visit 4, site staff will update concomitant medications and collect AEs as applicable. Ophthalmic evaluations are conducted (VA, SLE, subject rating of ocular symptoms, and staff grading of conjunctival redness and lid swelling). Subjects must have ocular itching scores of 0 in each eye and conjunctival redness scores of ≤1 in each eye in each region (nasal and temporal) of each eye in order to participate. […] 30 min prior to the CAPT procedure, clinic staff instills one drop of the randomized treatment into each eye. CAPT is then performed using the concentration titration than what reached the positive response at Visit 3 or 3B. Once the CAPT allergen is instilled, subject assessed symptoms and staff assessed signs are collected at 2.5 (+1 min—itching only), 5, 10, 15 min (+2 min), 30, 60, 90, 120, 150, 180 (+5 min). At the end of the visit, subjects are instructed and dispensed their randomized treatment for 2 weeks of at-home qid dosing and their diary card for recording their dosing, AEs, and concomitant medications. Subjects are scheduled to return for Visit 5 in 2 weeks.
(§1) At Visit 5, site staff will update concomitant medications and collect AEs as applicable. Ophthalmic evaluations are conducted (VA, SLE, subject rating of ocular symptoms, and staff grading of conjunctival redness and lid swelling). Approximately 10 μL of basal tears is collected from both eyes for cytokine analysis prior to drug instillation and CAPT. 30 min prior to the CAPT procedure, clinic staff instills one drop of the randomized treatment into each eye. CAPT is then performed using the concentration titration than what reached the positive response at Visit 3 or 3B. Once the CAPT allergen is instilled, subject assessed symptoms and staff assessed signs are collected at 2.5 (+1 min—itching only), 5, 10, 15 min (+2 min), 30, 60, 90, 120, 150, 180 min (+5 min). Following CAPT instillation, tear collection is begun at the 35 min (+15 min) mark, and approximately 10 μL of basal tears is collected from both eyes.
as §1, with “Visit 6,” for “Visit 5,”, “swelling).” for “swelling). Approximately 10 μL of basal tears is collected from both eyes for cytokine analysis prior to drug instillation and CAPT.”, “min).” for “min). Following CAPT instillation, tear collection is begun at the 35 min (+15 min) mark, and approximately 10 μL of basal tears is collected from both eyes.”
At Visit 7, site staff will update concomitant medications and collect AEs as applicable. Ophthalmic evaluations are conducted (VA, SLE, subject rating of ocular symptoms, and staff grading of conjunctival redness and lid swelling). 30 min prior to the CAPT procedure, clinic staff instills one drop of the randomized treatment into each eye. CAPT is then performed using the concentration titration than what reached the positive response at Visit 3 or 3B. […]

[2] = test system: subjects with allergic conjunctivitis; assay: Phase IIa CAPT study, safety and tolerability; format: in vivo, human
Excerpt: Clinical Study Endpoints—Safety Endpoints: (1) number and severity of local and systemic reactions, and other adverse reactions; (2) vital signs; (3) slit lamp examination; (4) visual acuity; (5) non-contact tonometry; and (6) fundus examination.
Study Products and Randomization. For study purposes, NS2 0.5% and NS2 0.0% are both referred to as study drug. NS2 is formulated in eye drops for topical ocular use. The drug product is supplied as single dose unpreserved eye drops at an NS2 concentration of 0.5% (w/v). The formulation is 9.5% sulfobutylether-β-cyclodextrin (SBE-β-CD) in sterile water for injection buffered with sodium phosphate, dibasic and monobasic, and pH adjusted to 7.3.
Dose Administration. NS2 ophthalmic drops (0.5%) or NS2 ophthalmic drops (0.0%) Vehicle are provided as single use blow fill vials. One drop is instilled into each eye four times daily for approximately […].
Adverse Events. An adverse event (AE) is defined as any untoward medical occurrence associated with the use of a drug in humans, whether or not considered drug related. Disease signs, symptoms, and/or laboratory abnormalities already existing prior to the use of the product are not considered AEs after treatment unless they reoccur after the subject has recovered from the pre-existing condition or, in the opinion of the investigator, they represent a clinically significant exacerbation in intensity or frequency. AEs are collected from the time the subject signs the informed consent form until the completion of study. AEs reported prior to dosing are captured and considered non treatment emergent AEs.
Safety Analysis. Safety is evaluated via the following parameters: (a) AEs; (b) Vital signs; (c) Slit lamp examination; (d) Visual acuity; (e) Non-contact tonometry; and (f) Fundus examination.
Cyclodextrin Response in CAPT Model. Cyclodextrin was utilized as vehicle in a Randomized, Parallel, Single-Center, Double-Masked, Vehicle-Controlled Phase II Study to Evaluate the Activity of Study Drug NS2 (i.e., structural formula (I)) Ophthalmic Solution in Subjects with Allergic Conjunctivitis using the Conjunctival Allergen Provocation Test (CAPT). There were initial screening and titrating CAPT visits, followed by confirmatory CAPT visits where the allergen dose which reproducibly causes an ocular allergic reaction was selected. This allergen dose was utilized for the active dosing study phase. A CAPT Onset of Action Visit after a single dose of study drug to each eye on dosing Day 1, Visit 4 (V4), and three post-2 week dosing CAPT visits on active dosing days 14, 15 and 16, V5-7. NS2 and vehicle were dosed 4× daily for 16 days. 100 healthy men and women with at least a 2 year history of allergic conjunctivitis to grass, tree or ragweed pollen were enrolled, randomized 1:1, 50 on NS2 and 50 on vehicle containing cyclodextrin.
The allergic conjunctivitis Phase IIa trial was a randomized, parallel group, double-masked, vehicle-controlled design evaluating the activity of NS2 ophthalmic solution in subjects with allergic conjunctivitis. The trial utilized the Conjunctival Allergen Provocation Test, known as the CAPT, and was conducted at a single center, Inflamax Research in Ontario, Canada, which has considerable experience with the CAPT model.

[3] = 16 days of dosing four times per day, 50 subjects
[4] = CAPT, Day 1 single dose and multiple days dosing, NS2 0.5% vs vehicle (9.5% SBE-β-CD)

| Molecule | efficacy in treating allergic conjunctivitis, result in words [1] | patients of the drug group who withdrew from the study (stinging) [2, 3] [patients] | patients of the drug group who withdrew from the study (stinging), percent [2, 3] [%] | stinging/burning adverse events reported as moderate ([2]; NS2 group) | frequency of stinging and or burning ([2]; NS2 group vs vehicle) | tolerability, result in words ([2]; topical ocular 0.5%, 4x daily, 16 days) | serious adverse events ([2]; whole study) | duration of clinical efficacy following each CAPT challenge ([1]; 3 hours studied after each CAPT challenge) [h] | ocular itching score, result in words [1, 4] | ocular tearing score, result in words [1, 4] | lid swelling, frequency and pattern, result in words ([1]; CAPT, NS2 vs vehicle) |
| --- | --- | --- | --- | --- | --- | --- | --- | --- | --- | --- | --- |
| sulfobutylether-β-cyclodextrin | high response rates and significant efficacy | – | – | – | – | – | – | – | – | – | – |
| CC(C)(O)c1nc2ccc(Cl)cc2cc1N [NS2] | greater effect | 2 | 4 | less than 10% | increased frequency | generally well tolerated | no serious adverse events | ≥ 3 | statistically significant differences; also recorded: greater effect; also recorded: exceeding one point reductions | statistically significant differences; also recorded: greater effect; also recorded: exceeding one point reductions | appeared similar |
